Data set [1] has as its system HSP70. Briefly: Example 4: Western blotting densitometry, HSP70. Format: in vivo, Sprague-Dawley rats. From the text:
(§1) 60 male Sprague-Dawley rats weighing 290-310 g at the time of injury were used in this experiment. Food and water were provided ad libidum before and after surgery. Animals were handled and weighed daily from their arrival, seven days pre-surgery, to brain extraction three weeks post-surgery. Animals were handled in squads of 12, with n=10 per experimental condition. All animal procedures were approved by the Emory University Animal Care and Use Committee, Protocol #131-2002.
(§2) Isofluorane anesthesia was induced for four minutes and 45 seconds at 5% and maintained at 2.5%. Normal body temperature was maintained with a surgical heating pad placed beneath the sterile dressings. The scalp incision area was shaved and sterilized with iodine and isopropanol. A midline incision was made along the scalp and the fascia cleared to expose the surface of the skull. Medial, lateral, and dorsal stereotaxic coordinates were determined at bregma, and a 5-7 mm diameter bilateral craniotomy was performed mid-sagitally, 3 mm anterior to bregma. […] Sutures were used to close the incision after bleeding ceased. Animals were placed in individual heated, clean recovery cages until they awakened, and were returned to clean individual home cages with accessible moistened food pellets. Sham animals were anesthetized, and an incision was made at the top of the head. The fascia was cleared to expose bregma, then the incision was sutured closed. Sham surgeries were matched to lesion surgeries for all experimental conditions.
(§3) Sham (S) and lesion (L) animals were randomly assigned to one of three treatment groups: vehicle (VS, VL), acute withdrawal (AWS, AWL), and tapered withdrawal (TWS, TWL). […] Tapering was induced as halved dosages over the last two days of treatment. Dilutions for TW treatments were made with HBC stock. […]
(§4) Brains for protein analysis were sectioned into the immediate area of the lesion and snap frozen in 2-methyl-butane chilled on dry ice. […] The amount of brain homogenate needed to standardize samples to 2 μg/μL for Western blotting was calculated from the results of these assays. […]
For orientation: In western blotting, separated proteins are transferred to a membrane and probed.

The test system of data set [2] is BBB. As to conditions: in vitro (Betz et al. 1990); cited from earlier work.
For data set [3], the system named is bilateral contusions of the medial prefrontal cortex. The experiment in a line: Example 1: necrotic cavity, lateral ventricle and striatal area measurements after TBI (Nissl/thionine histology). As to conditions: 4 mg/kg in peanut oil, 21 days after surgery. It counts as in vivo, Sprague-Dawley rats. Here is the method: Male Sprague-Dawley rats (300 g) were housed individually in wire cages and kept on a reverse light-dark cycle (0800-2000 h). […] All procedures involving animals conformed to guidelines set forth in the Guide for the Care and Use of Laboratory Animals (U.S. Department of Health and Human Services, Pub no. 85-23, 1985) and were approved by the Emory University Institutional Animal Care and Use Committee.
Bilateral contusions of the medial prefrontal cortex were created by a pneumatic impactor device as previously described. Briefly, rats were given anesthetized with ketamine/xylazine (90 mg/kg; 10 mg/kg) and placed in a stereotaxic apparatus. A craniectomy (diameter 6 mm) was made over the midline of the prefrontal cortex with its center 1.5 mm AP to bregma. After removal of the bone, the tip of the impactor (diameter 5 mm) was moved to +3.0 mm AP; 1.0 mm ML (from bregma), and checked for adequate clearance. Trauma was produced by pneumatically activating the piston to impact −2.0 mm DV (from dura) at a velocity of 3 m/s with a brain contact time of 0.5 seconds.
Control animals received injections of vehicle at similar time-points. Animals were coded with regard to surgery and treatment to prevent experimenter bias during behavioral testing and histological examination.
Twenty-one days after surgery, animals were perfused with 100 ml 0.1 M phosphate-buffered saline (PBS; pH 7.4) followed by 400 ml 4% paraformaldehyde in 0.1 M phosphate buffer (PB; pH 7.4). Following cryoprotection in 30% sucrose, coronal 40-μm-thick sections were cut on a freezing microtome, immediately mounted on gel-coated slides and stained for Nissl with thionine to determine placement and extent of the injury.
Mean area measurements of lesion size were quantified from sections at 15 rostral-caudal levels spaced 300 μm apart. […] Perimeters of the striatum and the lateral ventricles were also traced and mean areas were quantified from 7 rostral-caudal levels (300 μm apart).
Experienced individuals who were blind to treatment conditions of the study conducted all histological and behavioral analyses. All data were tested for normality and homoschedasticity before being analyzed by parametric analysis of variance (ANOVA). MWM results were analyzed using separate mixed-factorial (4 groups×5 days) analysis of variance (ANOVA) on each of the two 5-day testing periods (acquisition and retention respectively). Results of the BSN task were analyzed using the mixed-factorial ANOVA (4 groups×2 post-injury trials). […] Pearson r coefficients were calculated to determine whether significant correlations could be detected between histological (e.g., lesion size and cellular density) and behavioral parameters (e.g., acquisition and retention of the MWM task and measures of sensory neglect).

The subject of data set [4] is BDNF. The experiment in a line: Example 4: Western blotting densitometry, BDNF. It counts as in vivo, Sprague-Dawley rats.
From the text: as §1, §2, §3, §4

Here are results for one molecule from US8614203B2, “Methods for the treatment of a central nervous system injury via a tapered administration protocol” (Emory University, priority 2005, dated 2013).

Regarding `CC(=O)[C@H]1CC[C@H]2[C@@H]3CCC4=CC(=O)CC[C@]4(C)[C@H]3CC[C@]12C` [progesterone, pregn-4-ene-3,20-dione], the HSP70 levels entry in data set [1] (all progesterone treatment vs vehicle-treated animals, three weeks post-injury) was “increased HSP70 compared to vehicle-treated animals”; in data set [1] (sham animals (AWS, TWS, VS)) it was “Sham animals did not display any differences between treatment groups”; in data set [1] (tapered withdrawal, lesion (TWL) vs VL and AWL, three weeks post-injury) it was “increased in TWL animals”. In addition, in data set [2], the “permeability of the BBB” value was “reduce the permeability of the BBB to macromolecules, but not ions”. Besides, the “enlargement of the lateral ventricles” value in data set [3] (3 or 5 days) is “did not have any effect on this measure”. Besides, the mean striatal area entry in data set [3] (3 or 5 days) is “No between-group differences”. In addition, in data set [3] (3 days (LP3), vs injured animals), the necrotic cavity size entry was “tended to be smaller than in the brains of injured animals”. For the same molecule, in data set [3] (5 days (LP5), vs vehicle-injected injured animals), the necrotic cavity formation entry is “significant reductions in overall necrotic cavity formation”. Further, the BDNF levels entry in data set [4] (acute withdrawal, lesion (AWL) vs VL, three weeks post-injury) was “AWL over VL”; in data set [4] (sham animals (AWS, TWS, VS)), “Sham animals did not display any differences between treatment groups”; in data set [4] (tapered withdrawal, lesion (TWL) vs AWL, three weeks post-injury), “increase in BDNF levels for TWL over AWL”.
